Columns and labels:
E. coli = assay type: cell-based, Escherichia coli
M. luteus = assay type: cell-based, Micrococcus luteus
F. graminearum = assay type: cell-based, Fusarium graminearum
F. oxysporum = assay type: cell-based, Fusarium oxysporum
L. maculans = assay type: cell-based, Leptosphaeria maculans
A. rabiei = assay type: cell-based, Ascochyta rabiei

| Substance | concentration at which activity against E. coli was shown (E. coli) [µM] | concentration at which activity against M. luteus was shown (M. luteus) [µM] | activity against F. graminearum of fractions purified from hemolymph (F. graminearum) | concentration level at which activity against spores of F. graminearum was shown (F. graminearum) [µM] | concentration level at which activity against spores of F. oxysporum was shown (F. oxysporum) [µM] | concentration level at which activity against spores of L. maculans was shown (L. maculans) [µM] | activity against M. luteus (M. luteus) | activity against spores of F. oxysporum (F. oxysporum) | activity against E. coli (E. coli) | concentration level at which activity against spores of A. rabiei was shown (A. rabiei) [µM] |
| --- | --- | --- | --- | --- | --- | --- | --- | --- | --- | --- |
| Gm-moricinC3: Moricin-like peptide from Galleria mellonella, SEQ ID NO:5; purified from hemolymph and synthesised by Auspep (KVPIGAIKKGGKIIKKGLGVIGAAGTAHEVYSHVKNRQ; listed as Galleria mellonella) | 100 | 100 | activity | 10 | 100 | 100 |  |  |  |  |
| Gm-moricinC4/C5: Mature Gm-moricinC4 and Gm-moricinC5 from Galleria mellonella, identical mature amino acid sequences (SEQ ID NO:1 and 3), synthesised by Auspep (KVPVGAIKKGGKAIKTGLGVVGAAGTAHEVYSHIRNRH; listed as Galleria mellonella) | 100 |  |  | 100 |  | 100 | no activity | no activity |  |  |
| Gm-moricinD: Moricin-like antifungal peptide from Galleria mellonella, SEQ ID NO:7; purified from hemolymph and synthesised by Auspep (KGIGSALKKGGKIIKGGLGALGAIGTGQQVYEHVQNRQ; listed as Galleria mellonella) |  |  | activity | 10 | 100 | 100 | no activity |  | no activity | 100 |
